Patent EP4592286A1, “MACROCYCLIC NITROGEN-CONTAINING CROWN ETHER COMPOUND AND USE THEREOF AS PROTEIN KINASE INHIBITOR” (Artivila Biopharma, priority 2022, dated 2024)

Tests used:
Assay type in all cases: biochemical
[1] = molecular target: JAK1 (Homo sapiens, UniProt P23458); experiment: experiment of inhibiting kinase activity (Caliper mobility shift assay), JAK1; details: for inhibition at 0.01 µM: at 10 nM; for inhibition at 0.01 µM / inhibition at 0.1 µM: read-out: inhibition rate JAK1; for inhibition at 0.1 µM: at 100 nM
Sequence of JAK1 (P23458 whole entry): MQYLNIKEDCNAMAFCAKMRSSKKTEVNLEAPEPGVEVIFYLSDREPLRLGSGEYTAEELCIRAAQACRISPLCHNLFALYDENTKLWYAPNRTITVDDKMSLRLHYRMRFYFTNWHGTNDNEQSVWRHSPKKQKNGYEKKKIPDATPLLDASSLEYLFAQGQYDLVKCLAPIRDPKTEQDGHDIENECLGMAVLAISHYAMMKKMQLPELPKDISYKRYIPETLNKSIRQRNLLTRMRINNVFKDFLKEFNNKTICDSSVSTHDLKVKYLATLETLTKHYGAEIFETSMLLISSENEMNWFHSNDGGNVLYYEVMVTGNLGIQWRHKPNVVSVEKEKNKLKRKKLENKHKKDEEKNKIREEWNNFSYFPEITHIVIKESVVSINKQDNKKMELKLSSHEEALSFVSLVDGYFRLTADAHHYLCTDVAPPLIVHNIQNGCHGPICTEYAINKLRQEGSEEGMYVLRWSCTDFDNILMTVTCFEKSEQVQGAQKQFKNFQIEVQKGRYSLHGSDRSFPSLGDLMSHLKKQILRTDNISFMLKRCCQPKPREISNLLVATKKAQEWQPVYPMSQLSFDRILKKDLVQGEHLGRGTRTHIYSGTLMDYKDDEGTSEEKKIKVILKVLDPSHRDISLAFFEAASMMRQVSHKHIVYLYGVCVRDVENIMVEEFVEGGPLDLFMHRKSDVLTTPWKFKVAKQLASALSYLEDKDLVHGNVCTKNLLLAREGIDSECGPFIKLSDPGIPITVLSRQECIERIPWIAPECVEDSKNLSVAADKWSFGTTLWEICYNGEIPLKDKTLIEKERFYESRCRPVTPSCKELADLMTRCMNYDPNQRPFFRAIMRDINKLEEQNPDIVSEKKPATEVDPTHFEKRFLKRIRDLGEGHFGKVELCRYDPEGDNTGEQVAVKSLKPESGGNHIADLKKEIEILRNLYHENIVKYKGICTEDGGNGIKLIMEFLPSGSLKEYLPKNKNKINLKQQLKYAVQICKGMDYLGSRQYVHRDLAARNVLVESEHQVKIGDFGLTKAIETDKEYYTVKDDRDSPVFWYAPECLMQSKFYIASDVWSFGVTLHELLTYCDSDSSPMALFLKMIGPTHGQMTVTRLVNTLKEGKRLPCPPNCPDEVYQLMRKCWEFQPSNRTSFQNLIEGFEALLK
Protocol: (§1) The inhibition rates of tested compounds on JAK1, JAK2, JAK3, TYK2, CDK7, CDK9, EGFR (T790M) and LRRK2 kinases were measured. The test concentrations of the compounds were 10 nM and 100 nM, and the detection was performed by replicate wells. Alternatively, compounds were 3-fold serial diluted from 10 µM for 10 concentrations in replicate wells.
(§2) The inhibitory effects of the compounds on JAK1, JAK2, JAK3, CDK7 and CDK9 kinases were detected by the method of Caliper mobility shift assay. 250 nL of the compound at 100-fold final concentration was transferred to a destination plate 384-well-plate by using a liquid handler Echo 550. A kinase solution at 2.5-fold final concentration was prepared with 1×kinase buffer. 10 µL of the kinase solution with 2.5-fold final concentration was added to compound wells and positive control wells; and 10 µL of 1×kinase buffer was added to negative control wells. The mixture was centrifuged at 1000 rpm for 30 seconds and then incubated at room temperature for 10 minutes. A mixed solution of ATP and kinase substrate at 5/3-fold final concentration was prepared with 1×kinase buffer, and 15 µL of the mixed solution of ATP and substrate at 5/3-fold final concentration was added to start the reaction. The 384-well plate was centrifuged at 1000 rpm for 30 seconds, shaked and mixed evenly, then incubated at room temperature for a corresponding time. 30 µL of stop solution was added to stop the kinase reaction, the mixture was centrifuged at 1000 rpm for 30 seconds, and shaked and mixed evenly. The conversion rate was read by Caliper EZ Reader. The conversion inhibition rate%=(average positive control conversion rate%-sample conversion rate%)/(average positive control conversion rate%-average negative control conversion rate%). Where negative control wells represent the conversion readings of the background well of kinase buffer; and positive control wells represent the conversion readings of wells without compound inhibition. With the log value of concentration as the x axis and the percentage inhibition rate as the y axis, the dose-response curve was fitted by the log (inhibitor) vs. response-variable slope of the analyzing softwar GraphPad Prism 5, and the IC50 values of each compound on enzyme activity were obtained. Calculation formula is as follows: y=Bottom+(Top-Bottom)/(1+10^((LogIC50-x)×hillslope)), where x is logarithm of inhibitor concentration; and Y is % inhibition rate.

[2] = molecular target: JAK2 (Homo sapiens, UniProt O60674); experiment: experiment of inhibiting kinase activity (Caliper mobility shift assay), JAK2; details: for inhibition at 0.01 µM: at 10 nM; for inhibition at 0.01 µM / inhibition at 0.1 µM: read-out: inhibition rate JAK2; for inhibition at 0.1 µM: at 100 nM; for IC50: kinase activity assay, Table 3
Sequence of JAK2 (O60674 whole entry): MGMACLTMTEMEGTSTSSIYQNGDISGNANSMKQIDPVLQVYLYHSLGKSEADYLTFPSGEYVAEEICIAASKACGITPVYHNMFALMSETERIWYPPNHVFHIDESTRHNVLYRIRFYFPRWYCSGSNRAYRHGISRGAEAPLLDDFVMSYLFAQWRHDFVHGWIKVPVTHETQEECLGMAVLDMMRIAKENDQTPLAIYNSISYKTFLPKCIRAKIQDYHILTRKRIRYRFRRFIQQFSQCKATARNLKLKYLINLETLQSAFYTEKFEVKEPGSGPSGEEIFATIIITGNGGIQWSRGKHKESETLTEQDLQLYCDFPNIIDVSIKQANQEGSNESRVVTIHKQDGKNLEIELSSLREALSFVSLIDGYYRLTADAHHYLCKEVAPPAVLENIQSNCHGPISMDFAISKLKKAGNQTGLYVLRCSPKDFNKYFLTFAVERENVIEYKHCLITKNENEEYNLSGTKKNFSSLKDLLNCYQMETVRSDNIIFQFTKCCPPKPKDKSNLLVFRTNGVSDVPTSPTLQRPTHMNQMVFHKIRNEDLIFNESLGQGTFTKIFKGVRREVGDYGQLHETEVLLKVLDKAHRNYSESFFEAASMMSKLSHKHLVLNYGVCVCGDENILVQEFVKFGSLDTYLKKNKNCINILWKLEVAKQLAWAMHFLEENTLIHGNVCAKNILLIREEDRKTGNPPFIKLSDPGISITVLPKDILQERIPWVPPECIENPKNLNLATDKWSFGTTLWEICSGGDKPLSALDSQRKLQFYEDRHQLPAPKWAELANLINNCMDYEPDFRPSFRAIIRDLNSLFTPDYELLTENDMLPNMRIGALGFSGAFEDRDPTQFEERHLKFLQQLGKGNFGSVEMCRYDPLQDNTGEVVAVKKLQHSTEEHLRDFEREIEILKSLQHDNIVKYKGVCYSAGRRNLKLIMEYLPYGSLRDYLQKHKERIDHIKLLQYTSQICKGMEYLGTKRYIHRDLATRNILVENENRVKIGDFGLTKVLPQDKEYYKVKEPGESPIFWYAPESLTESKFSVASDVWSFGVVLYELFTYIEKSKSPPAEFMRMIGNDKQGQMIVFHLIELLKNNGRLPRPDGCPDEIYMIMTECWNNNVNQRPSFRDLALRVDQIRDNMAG
Protocol: as §1, §2

[3] = molecular target: T1, JAK3 (Homo sapiens, UniProt P52333); experiment: experiment of inhibiting kinase activity (Caliper mobility shift assay), JAK3; details: for inhibition at 0.01 µM: at 10 nM; for inhibition at 0.01 µM / inhibition at 0.1 µM: read-out: inhibition rate JAK3; for inhibition at 0.1 µM: at 100 nM
T1 sequence (P52333 1-1124): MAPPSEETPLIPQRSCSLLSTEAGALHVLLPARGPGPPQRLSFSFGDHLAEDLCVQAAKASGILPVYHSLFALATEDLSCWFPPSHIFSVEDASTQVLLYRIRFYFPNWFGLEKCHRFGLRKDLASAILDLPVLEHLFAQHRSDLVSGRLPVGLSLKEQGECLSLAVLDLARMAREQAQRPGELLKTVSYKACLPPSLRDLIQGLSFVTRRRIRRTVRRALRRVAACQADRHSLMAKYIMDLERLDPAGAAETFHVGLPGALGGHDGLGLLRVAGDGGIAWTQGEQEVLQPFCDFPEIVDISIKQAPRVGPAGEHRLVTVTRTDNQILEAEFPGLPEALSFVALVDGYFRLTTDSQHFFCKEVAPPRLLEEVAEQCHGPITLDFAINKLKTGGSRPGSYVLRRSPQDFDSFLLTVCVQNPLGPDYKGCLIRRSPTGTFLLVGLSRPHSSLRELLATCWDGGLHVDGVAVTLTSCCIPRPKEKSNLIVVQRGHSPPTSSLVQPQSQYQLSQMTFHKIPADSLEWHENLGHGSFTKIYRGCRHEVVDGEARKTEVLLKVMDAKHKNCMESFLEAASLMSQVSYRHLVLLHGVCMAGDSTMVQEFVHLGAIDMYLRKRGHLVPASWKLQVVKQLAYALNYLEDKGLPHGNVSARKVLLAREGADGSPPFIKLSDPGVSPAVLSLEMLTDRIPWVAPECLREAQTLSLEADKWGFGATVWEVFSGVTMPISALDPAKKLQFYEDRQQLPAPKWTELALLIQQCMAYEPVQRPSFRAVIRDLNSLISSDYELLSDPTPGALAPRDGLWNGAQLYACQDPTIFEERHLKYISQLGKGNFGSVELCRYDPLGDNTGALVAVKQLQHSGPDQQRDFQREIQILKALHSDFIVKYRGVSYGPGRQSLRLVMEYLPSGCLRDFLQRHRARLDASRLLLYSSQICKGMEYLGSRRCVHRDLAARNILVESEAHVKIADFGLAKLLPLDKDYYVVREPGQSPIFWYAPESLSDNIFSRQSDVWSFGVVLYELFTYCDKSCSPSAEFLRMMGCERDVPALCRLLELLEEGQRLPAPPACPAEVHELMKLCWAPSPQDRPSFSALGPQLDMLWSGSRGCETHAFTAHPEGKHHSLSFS
Protocol: as §1, §2

[4] = molecular target: TYK2 (Homo sapiens, UniProt P29597); experiment: experiment of inhibiting kinase activity, TYK2; details: read-out: inhibition rate TYK2; for inhibition at 0.01 µM: at 10 nM; for inhibition at 0.1 µM: at 100 nM
Sequence of TYK2 (P29597 whole entry): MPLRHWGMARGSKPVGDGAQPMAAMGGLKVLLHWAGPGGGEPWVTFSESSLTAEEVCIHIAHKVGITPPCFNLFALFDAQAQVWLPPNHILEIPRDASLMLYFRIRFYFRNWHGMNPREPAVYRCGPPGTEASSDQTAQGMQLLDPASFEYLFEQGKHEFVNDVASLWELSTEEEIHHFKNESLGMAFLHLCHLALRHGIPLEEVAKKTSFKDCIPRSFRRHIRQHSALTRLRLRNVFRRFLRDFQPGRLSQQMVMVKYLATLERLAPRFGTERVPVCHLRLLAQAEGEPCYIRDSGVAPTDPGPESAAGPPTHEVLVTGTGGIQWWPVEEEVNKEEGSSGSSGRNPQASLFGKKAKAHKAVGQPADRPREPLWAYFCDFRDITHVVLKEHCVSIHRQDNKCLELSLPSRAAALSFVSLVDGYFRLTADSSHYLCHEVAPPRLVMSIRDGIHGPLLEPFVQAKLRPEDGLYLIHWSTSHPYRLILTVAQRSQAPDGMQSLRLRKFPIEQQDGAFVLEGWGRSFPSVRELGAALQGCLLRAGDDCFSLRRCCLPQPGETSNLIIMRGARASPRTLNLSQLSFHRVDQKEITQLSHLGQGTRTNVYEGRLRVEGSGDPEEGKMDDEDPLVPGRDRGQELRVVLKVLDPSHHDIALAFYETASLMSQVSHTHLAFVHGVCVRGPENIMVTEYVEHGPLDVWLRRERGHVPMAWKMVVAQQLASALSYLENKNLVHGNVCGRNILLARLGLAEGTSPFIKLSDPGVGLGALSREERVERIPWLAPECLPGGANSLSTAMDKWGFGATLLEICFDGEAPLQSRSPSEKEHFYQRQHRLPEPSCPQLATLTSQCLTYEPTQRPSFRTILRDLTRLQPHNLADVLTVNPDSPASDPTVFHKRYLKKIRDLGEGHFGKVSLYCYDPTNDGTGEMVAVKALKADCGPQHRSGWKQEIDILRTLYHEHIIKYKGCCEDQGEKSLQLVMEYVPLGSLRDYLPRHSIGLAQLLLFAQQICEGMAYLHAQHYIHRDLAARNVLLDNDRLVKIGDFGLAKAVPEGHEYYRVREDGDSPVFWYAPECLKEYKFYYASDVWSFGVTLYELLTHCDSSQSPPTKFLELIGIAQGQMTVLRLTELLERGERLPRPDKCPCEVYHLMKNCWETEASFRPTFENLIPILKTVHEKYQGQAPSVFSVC
Protocol: as §1

[5] = molecular target: LRRK2 (Homo sapiens, UniProt Q5S007); experiment: experiment of inhibiting kinase activity, LRRK2; details: for inhibition at 0.01 µM: at 10 nM; for inhibition at 0.01 µM / inhibition at 0.1 µM: read-out: inhibition rate LRRK2; for inhibition at 0.1 µM: at 100 nM; for IC50: kinase activity assay, Table 3
Protocol: as §1

With `CN1CCOCCOc2cc(Nc3nc(-c4cnn([C@H](CC#N)C5CCCC5)c4)c4cc[nH]c4n3)ccc2OCC1` [Example 74, (R)-3-cyclopentyl-3-(4-(2-((7-methyl-2,3,6,7,8,9-hexahydro-5H-benzo[b][1,4,7]trioxa[10]azacyclododecan-13-yl)amino)-7H-pyrrolo[2,3-d]pyrimidin-4-yl)-1H-pyrazol-1-yl) propionitrile] the inhibition at 0.01 µM [1] was 25 to 39%, the inhibition at 0.01 µM [2] was greater than 80% and the inhibition at 0.01 µM [3] was greater than 80%. The inhibition at 0.01 µM [4] was greater than 80% and the inhibition at 0.01 µM [5] was 40 to 79%.

With `CN1CCOc2ccc(Nc3ncc(Cl)c(Nc4cccc(NC(=O)[C@H]5C[C@H](N)C5)c4)n3)cc2OCC1` [Example 72, (1r,3r)-3-amino-N-(3-((5-chloro-2-((4-methyl-3,4,5,6-tetrahydro-2H-benzo[b][1,4,7]dioxazolin-9-yl)amino)pyrimidin-4-yl)amino)phenyl)cyclobutan-1-carboxamide] the inhibition at 0.01 µM [1] was 25 to 39% and the inhibition at 0.01 µM [2] was 40 to 79%.

In the case of `CN1CCOCCOc2ccc(Nc3nc(-c4cnn(C(CC#N)C5CCCC5)c4)c4cc[nH]c4n3)cc2OCC1` (stereo not shown) [Example 48, 3-cyclopentyl-3-(4-(2-((7-methyl-2,3,6,7,8,9-hexahydro-5H-benzo[b][1,4,7]trioxa [10]azacyclododecan-12-yl)amino)-7H-pyrrolo[2,3-d]pyrimidin-4-yl)-1H-pyrazol-1-yl) propionitrile], the inhibition at 0.01 µM [1] is reported as greater than 80%, the inhibition at 0.01 µM [2] is reported as greater than 80% and the inhibition at 0.01 µM [3] is reported as greater than 80%. The inhibition at 0.01 µM [4] was greater than 80% and the inhibition at 0.01 µM [5] was greater than 80%.

Compound `CN1CCOc2ccc(Nc3nc(-c4cnn([C@@H](CC#N)C5CCCC5)c4)c4cc[nH]c4n3)cc2OCC1` [Example 77, (S)-3-cyclopentyl-3-(4-(2-((4-methyl-3,4,5,6-tetrahydro-2H-benzo[b][1,4,7]dioxazolin-9-yl)amino)-7H-pyrrolo[2,3-d]pyrimidin-4-yl)-1H-pyrazol-1-yl)propanenitrile] has an inhibition at 0.01 µM [1] greater than 80%, an inhibition at 0.01 µM [2] greater than 80% and an inhibition at 0.01 µM [3] greater than 80%. The inhibition at 0.01 µM [4] was greater than 80% and the inhibition at 0.01 µM [5] was greater than 80%.

With `CN1CCOc2ccc(Nc3nc(-c4ccc(C(=O)NCC#N)cc4)c4cn[nH]c4n3)cc2OCC1` [Example 38, N-(cyanomethyl)-4-(6-((4-methyl-3,4,5,6-tetrahydro-2H-benzo[b][1,4,7]dioxazolin-9-yl)amino)-1H-pyrazolo[3,4-d]pyrimidin-4-yl)benzamide] the inhibition at 0.1 µM [1] was 40 to 79%, the inhibition at 0.1 µM [2] was greater than 80% and the IC50 [2] was less than 50 nM. For the same compound, the inhibition at 0.1 µM [3] was 25 to 39%, the inhibition at 0.1 µM [4] was 40 to 79% and the inhibition at 0.1 µM [5] was 40 to 79%. It also gave an IC50 [5] of 50 to 200 nM.

`CN1CCOCCOc2cc(Nc3ncc(F)c(Nc4cccc(S(=O)(=O)NC(C)(C)C)c4)n3)ccc2OCC1` [Example 9, N-(tert-butyl)-3-((5-fluoro-2-((7-methyl-2,3,6,7,8,9-hexahydro-5H-benzo[b][1,4,7]trioxa[10]azacyclododecan-13-yl)amino)pyrimidin-4-yl)amino)benzenesulfonamide] gave an inhibition at 0.1 µM [1] of 25 to 39%, an inhibition at 0.01 µM [2] greater than 80% and an inhibition at 0.1 µM [2] greater than 80%. For the same compound, the IC50 [2] was less than 50 nM, the inhibition at 0.1 µM [3] was 40 to 79% and the inhibition at 0.1 µM [4] was 40 to 79%. For the same compound, the inhibition at 0.1 µM [5] was 40 to 79%.

Work on `CN1CCOc2ccc(Nc3nc(-c4cnn([C@H](CC#N)C5CCCC5)c4)c4cc[nH]c4n3)cc2OCC1` [Example 76, (R)-3-cyclopentyl-3-(4-(2-((4-methyl-3,4,5,6-tetrahydro-2H-benzo[b][1,4,7]dioxazolin-9-yl)amino)-7H-pyrrolo[2,3-d]pyrimidin-4-yl)-1H-pyrazol-1-yl)propanenitrile] yielded an inhibition at 0.01 µM [1] of 40 to 79%, an inhibition at 0.01 µM [2] greater than 80% and an inhibition at 0.01 µM [3] of 40 to 79%. For the same compound, the inhibition at 0.01 µM [4] was greater than 80% and the inhibition at 0.01 µM [5] was 40 to 79%.

With `CN1CCOc2ccc(Nc3nc(N4C[C@H]5CC[C@@H](C4)N5C(=O)C4CC4)c4cc[nH]c4n3)cc2OCC1` [Example 79, cyclopropyl((1R,5S)-3-(2-((4-methyl-3,4,5,6-tetrahydro-2H-benzo[b][1,4,7]dioxazolin-9-yl)amino)-7H-pyrrolo[2,3-d]pyrimidin-4-yl)-3,8-diazabicyclo[3.2.1]octan-8-yl)methanone] the inhibition at 0.01 µM [1] was 40 to 79%, the inhibition at 0.01 µM [2] was greater than 80% and the inhibition at 0.01 µM [4] was greater than 80%. The inhibition at 0.01 µM [5] was 40 to 79%.

Work on `CN1CCOCCOc2ccc(Nc3nc(-c4ccc(C(=O)NCC#N)cc4)c4cc[nH]c4n3)cc2OCC1` [Example 51, N-(cyanomethyl)-4-(2-((7-methyl-2,3,6,7,8,9-hexahydro-5H-benzo[b][1,4,7]trioxa [10]azacyclododecan-12-yl)amino)-7H-pyrrolo[2,3-d]pyrimidin-4-yl)benzamide] yielded an inhibition at 0.01 µM [1] of 40 to 79%, an inhibition at 0.01 µM [2] greater than 80% and an inhibition at 0.01 µM [3] of 40 to 79%. It also gave an inhibition at 0.01 µM [4] of 25 to 39% and an inhibition at 0.01 µM [5] of 25 to 39%.

For `CCS(=O)(=O)N1CC(CC#N)(n2cc(-c3nc(Nc4ccc5c(c4)OCCN(C)CCO5)nc4[nH]ncc34)cn2)C1` [Example 29, 2-(1-(ethylsulfonyl)-3-(4-(6-((4-methyl-3,4,5,6-tetrahydro-2H-benzo[b][1,4,7]dioxazolin-9-yl)amino)-1H-pyrazolo[3,4-d]pyrimidin-4-yl)-1H-pyrazol-1-yl)azetidin-3-yl) acetonitrile], the inhibition at 0.1 µM [1] was greater than 80%, the IC50 ([1]; kinase activity assay, Table 3) was less than 50 nM and the inhibition at 0.1 µM [2] was greater than 80%. For the same compound, the IC50 [2] was less than 50 nM, the IC50 ([3]; kinase activity assay, Table 3) was less than 50 nM and the inhibition at 0.1 µM [4] was greater than 80%. For the same compound, the inhibition at 0.1 µM [5] was 40 to 79% and the IC50 [5] was 50 to 200 nM.

For `CN1CCOCCOc2ccc(Nc3ncc(F)c(Nc4cccc(S(=O)(=O)NC(C)(C)C)c4)n3)cc2OCC1` [Example 40, N-(tert-butyl)-3-((5-fluoro-2-((7-methyl-2,3,6,7,8,9-hexahydro-5H-benzo[b][1,4,7]trioxa[10]azacyclododecan-12-yl)amino)pyrimidin-4-yl)amino)benzenesulfonamide], the inhibition at 0.1 µM [1] was 25 to 39%, the inhibition at 0.01 µM [2] was greater than 80% and the inhibition at 0.1 µM [2] was greater than 80%. For the same compound, the inhibition at 0.1 µM [3] was 25 to 39%, the inhibition at 0.1 µM [4] was 40 to 79% and the inhibition at 0.1 µM [5] was 25 to 39%.

With `CN1CCOc2ccc(Nc3ncc(F)c(Nc4cccc(S(=O)(=O)NC(C)(C)C)c4)n3)cc2OCC1` [Example 1, N-(tert-butyl)-3-((5-fluoro-2-((4-methyl-3,4,5,6-tetrahydro-2H-benzo[b][1,4,7]dioxazolin-9-yl)amino)pyrimidin-4-yl)amino)benzsulfamide] the inhibition at 0.1 µM [1] was 25 to 39%, the inhibition at 0.01 µM [2] was 40 to 79% and the inhibition at 0.1 µM [2] was greater than 80%. The IC50 [2] was less than 50 nM and the inhibition at 0.1 µM [3] was 25 to 39%.
